Assay results: patent US7264969B1, “Carrier system for specific artery wall gene delivery” (University of Utah Research Foundation, priority 2000, dated 2007)
Where no end group is shown, it is not given here.

What was measured:
DNase I = assay: DNase protection assay; settings: 37° C.; charge ratio 2/1 (+/−); 10 times excess of DNase I; FIG. 3B
Procedure: AWBP-PEG-g-PLL/pDNA complexes were prepared at the charge ratios of 2/1 (+/−) and incubated in the presence of 10 times excess of DNase I. At 0, 5, 10, 15, 20, 60, and 120 minutes after incubation, 50 μl of the sample was transferred into another tube and mixed with 100 μl of stop solution (400 mM NaCl and 100 mM EDTA) using mild agitation with a vortexer. The sample was then mixed with 12 μl of 10% (w/v) sodium dodecyl sulfate (SDS) and incubated at 65° C. overnight. DNA was extracted with the mixture of Tris-EDTA saturated phenol:chloroform:isoamyl alcohol (25:24:1, v/v). The extracted DNA was precipitated with 700 μl of absolute ethanol at 12,000 rpm for 30 minutes and washed with 70% ethanol. The DNA precipitate was air-dried and then dissolved in 10 μl TE buffer. The plasmid integrity was assessed by electrophoresis in a 1% agarose gel.

[1] = tested on: bovine aorta endothelial cells; assay: Transfection assay (luciferase gene expression); assay type: cell-based
Procedure: (§1) Gene expression. (Transfection assay) Primary bovine aorta endothelial cells and smooth muscle cells were prepared, cultured, characterized, and identified as described in L. Yu et al., supra. Bovine aorta endothelial cells (5×10^5/well) and smooth muscle cells (2×10^5/well) were seeded in 24-well plates with 1 ml Dulbecco's modified Eagle medium (DMEM, Hyclone Laboratories, Logan, Utah) containing 10% fetal bovine serum (FBS, Hyclone Laboratories) and incubated for 24 hours to 70-80% confluency. The AWBP-PEG-g-PLL/pCMV-Luc complexes were freshly prepared in PBS for the transfection with fixed amount of plasmid DNA (2 μg/well) and various amounts of AWBP-PEG-g-PLL. After incubation of complexes for 30 minutes at room temperature, 100 μl of complex solution was added to the cells and then incubated for 3 hours at 37° C. in 5% CO2 atmosphere. After replacement of media, the cells were incubated for 40 hours under the same conditions. The cells were washed three times with PBS buffer and made ready for the reporter gene expression assay.
(§2) (Gene expression assay) Transgene expression was evaluated by luciferase activity of cell lysates from transfected bovine aorta endothelial cells and smooth muscle cells. Measurement of luciferase activity was performed according to the manufacturer's instruction (Luciferase Assay System, Promega, Madison, Wis.). Briefly, the transfected cells were lysed with 1× lysis buffer (1% Triton X-100), 100 mM KPO4, 2 mM dithiothreitol, 10% glycerol, and 2 mM EDTA, pH 7.8) for 15 minutes at room temperature. To measure the luciferase activity, 20 μl aliquot of cell lysate was mixed with 50 μl of luciferase assay reagent at room temperature and inserted in the luminometer. Light emission was measured in triplicate over 10 s and expressed as relative light units (RLUs). RLUs were normalized from the protein content of each sample, which was determined by BCA protein assay.

[2] = tested on: bovine aorta smooth muscle cells; assay: Transfection assay (luciferase gene expression); assay type: cell-based
Procedure: as §1, §2

[3] = tested on: bovine aorta endothelial cells; assay: Transfection inhibition assay with free AWBP; assay type: cell-based; settings: free AWBP 31.25 μM to 500 μM
Procedure: (§3) (Transfectioninhibition assay). Bovine aorta endothelial cells (5×10^5/well) and smooth muscle cells (2×10^5/well) were seeded in 24-well plates 1 day prior to transfection with 70 to 80% confluence. The AWBP-PEG-g-PLL/pCMV-Luc complexes were freshly prepared in PBS buffer for the transfection with a fixed amount of plasmid DNA (2 μg/well) and AWBP-PEG-g-PLL (4 μg/well). After addition of various amounts of free artery wall binding peptide (range from 31.3 μM to 1.0 mM) for 20 minutes at 4° C., 100 μl AWBP-PEG-g-PLL/pCMV-Luc solution was added to the cells. All the other conditions were the same as described above for the transfection assay.
as §2, with “To measure the luciferase activity, 20 μl aliquot of cell lysate was mixed with 50 μl of luciferase assay reagent at room temperature and inserted in the luminometer.” left out

[4] = tested on: bovine aorta smooth muscle cells; assay: Transfection inhibition assay with free AWBP; assay type: cell-based; settings: free AWBP 31.25 μM to 500 μM
Procedure: as §3
as §2, with “To measure the luciferase activity, 20 μl aliquot of cell lysate was mixed with 50 μl of luciferase assay reagent at room temperature and inserted in the luminometer.” left out

Substance | time for which pDNA is protected from digestion with DNase (DNase I) | luciferase activity of cell lysate ([1]; ratio carrier to plasmid DNA from 1.5:1 to 2:1, FIG. 6A) | luciferase activity of cell lysate ([1]; ratio carrier to plasmid DNA from 2:1 to 5:1, FIG. 6A) | luciferase activity of cell lysate ([2]; ratio carrier to plasmid DNA from 1.5:1 to 2:1, FIG. 6B) | luciferase activity of cell lysate ([2]; ratio carrier to plasmid DNA from 2:1 to 5:1, FIG. 6B) | effect of free AWBP on gene transfer by AWBP-PEG-g-PLL/pDNA complexes [3] | effect of free AWBP on gene transfer by AWBP-PEG-g-PLL/pDNA complexes [4]
AWBP-PEG-g-PLL: artery wall binding peptide (SEQ ID NO:2) conjugated to poly(ethylene glycol)-grafted-poly(L-lysine), about 4 mol AWBP per mole (CGRALVDTLKFVTQAEGAK; also: conjugated to PEG-grafted poly(L-lysine), about 4 mol peptide per mole, site not given here; listed as Homo sapiens) | at least 2 hours | significantly increased | remained constant | significantly increased | remained constant | – | –
AWBP: synthetic peptide based on arterial binding domain of apo B-100 (residues 1000-1016) with cysteine added to amino-terminus (CGRALVDTLKFVTQAEGAK; listed as Homo sapiens) | – | – | – | – | – | significantly inhibit | significantly inhibit
